Assay: gradient 5% acetonitrile 3 min, to 50% in 2 min, to 85% in 15 min, held 3 min, 100 µL/min
Details: column: Zorbax Extend-C18 2.1 x 50 mm; eluents: water / acetonitrile, 0.1% formic acid
How it was run: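 Retention time was recorded from adduct peaks, which were picked computationally and each inspected manually. Pure standards ran in mixtures of ~100 molecules on HPLC coupled to a quadrupole time-of-flight mass spectrometer, in positive and negative ionization mode, through a Zorbax Extend-C18 column (2.1 × 50 mm, 1.8 μm) at 100 μL/min. Eluents were water and acetonitrile, each with 0.1% formic acid.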

## CN(Cc1ccccc1)C(=O)c1nnc(-c2ccc(S(=O)(=O)N3CCCCC3)cc2)o1
  RP-LC retention time: 1040 s

## CCC(=O)N1CCCCCNC(=O)[C@@H]2CCC[C@@H]21
  RP-LC retention time: 621 s

## Cc1cc(=O)n(CC(=O)NCc2ccccc2Cl)c(N)n1
  RP-LC retention time: 603 s

## COc1ccc(-n2c(=O)n(C)c(=O)c3cc(C(=O)Nc4cccc(Cl)c4)cnc32)cc1
  RP-LC retention time: 1010 s

## CC(CNC(=O)C1CCN(S(=O)(=O)c2ccc3c(c2)NC(=O)CO3)CC1)c1ccccc1 (stereo not given)
  RP-LC retention time: 792 s

## CC(C)N1CCN(C(=O)c2n[nH]c3c2CCCC3)CC1
  RP-LC retention time: 558 s

## COc1ccc(-c2nnc(Cc3nc(-c4ccc(F)cc4)no3)o2)cc1OC
  RP-LC retention time: 907 s

## Cc1cc(-c2cc(S(=O)(=O)NCCc3ccc(Cl)cc3)c(C)s2)n[nH]1
  RP-LC retention time: 915 s

## Cc1ccc2c(C(=O)N3CCN(Cc4ccccc4)CC3)cc(NC(=O)C(C)C)cc2n1
  RP-LC retention time: 571 s

## COc1cccc(Oc2nccnc2N2CCC(C(=O)NCCC3=CCCCC3)CC2)c1
  RP-LC retention time: 1050 s

## O=C1NC2(CCN(C(=O)Cc3cccc(F)c3)CC2)Nc2c(Cl)cccc21
  RP-LC retention time: 785 s

## COc1ccc(F)cc1S(=O)(=O)N1CCC2(CC1)c1nccn1CCN2C
  RP-LC retention time: 564 s

## Cn1c(=O)oc2cc(-c3noc(CNS(=O)(=O)c4ccccc4)n3)ccc21
  RP-LC retention time: 805 s

## Cc1nc(-c2ccc3c(c2)CCN3C(=O)c2nccc3ccccc23)cs1
  RP-LC retention time: 1040 s

## CC(NC(=O)c1c(O)c2cccnc2n(-c2cccc(F)c2)c1=O)c1ccccc1 (stereo not given)
  RP-LC retention time: 1230 s

## Cc1ccc2oc(-c3noc(C(=O)NCc4ccc5c(c4)OCO5)n3)c(C)c2c1
  RP-LC retention time: 1120 s

## CCN1C(=O)c2cccnc2Sc2cc(NC(=O)c3ccc(C)c(C)c3)ccc21
  RP-LC retention time: 918 s

## Cc1nn(C(C)C(=O)NCCN(C)Cc2ccccc2)c(=O)c2c(C)n(-c3ccccc3)nc12 (stereo not given)
  RP-LC retention time: 686 s

## COc1cc(NC(=O)C2CC(=O)N(CCc3c[nH]c4ccc(F)cc34)C2)cc(OC)c1OC (stereo not given)
  RP-LC retention time: 744 s

## Cc1cccc(S(=O)(=O)Nc2ccc3c(c2)CCC(=O)N3CC(C)C)c1
  RP-LC retention time: 896 s

## Nc1cccc(-c2ccc(N3CCCCC3)nn2)c1
  RP-LC retention time: 570 s

## CCOc1ccc(NC(=O)N2CCc3cn(C)c4cccc(c34)C2)cc1
  RP-LC retention time: 913 s

## Cc1ccc(CNC(=O)C2CCCN(c3cnc4nccnc4c3)C2)cc1C (stereo not given)
  RP-LC retention time: 722 s

## O=C(NCC1CC(=O)N(c2ccc3c(c2)OCO3)C1)Nc1ccccc1C(F)(F)F (stereo not given)
  RP-LC retention time: 717 s

## CNCc1ccc(-c2ccc(F)c(Cl)c2)o1
  RP-LC retention time: 644 s

## Cc1ccc(-n2c(=O)c3sccc3n(Cc3nc(-c4cccc(Br)c4)no3)c2=O)cc1
  RP-LC retention time: 1110 s

## CN(CC1CCOCC1)C(=O)Nc1ccc(Cl)cc1
  RP-LC retention time: 772 s

## Cc1nc2c(NC(=O)c3ccc(Cl)cc3)cccn2n1
  RP-LC retention time: 835 s

## O=S(=O)(c1cccc2c(I)cccc12)N1CCCNCC1
  RP-LC retention time: 673 s

## CCOc1ccc(NS(=O)(=O)c2cc(-c3[nH]ncc3C(=O)N3CCCC3)oc2C)cc1
  RP-LC retention time: 717 s

## COc1ccc2nc(NCCn3cccn3)sc2c1
  RP-LC retention time: 599 s

## CCOc1ccc(S(=O)(=O)N2CCC(C(=O)NCc3ccccn3)CC2)cc1C
  RP-LC retention time: 680 s

## COc1ccc(OC)c(NC(=O)COc2nc(C)nc3ccccc23)c1
  RP-LC retention time: 725 s

## Clc1ccc(Nc2nc(NCCCn3ccnc3)nc3nc[nH]c23)cc1
  RP-LC retention time: 536 s

## c1ccc(Cn2cnnc2C2CCCN(Cc3cccs3)C2)cc1 (stereo not given)
  RP-LC retention time: 592 s

## Cc1ccc(C)c(-c2coc(-c3ccc(NC(=O)NCc4ccc(F)cc4)cc3)n2)c1
  RP-LC retention time: 1190 s

## O=C(NCc1ccc(Cl)cc1)C1CCN(C(=O)C2Sc3ccccc3NC2=O)CC1 (stereo not given)
  RP-LC retention time: 765 s

## NC(=O)[C@H]1CCCCc2c1[nH]c1ccc(Cl)cc21
  RP-LC retention time: 819 s

## Cc1cc(C)n(-c2cc(NCc3ccccn3)ncn2)n1
  RP-LC retention time: 600 s

## Cc1noc(C)c1S(=O)(=O)N1CCC(Cc2nc(-c3ccncc3)n[nH]2)C1 (stereo not given)
  RP-LC retention time: 619 s

## O=C(Cn1cccc(-c2nc(-c3ccc(F)cc3)no2)c1=O)Nc1ccc(Br)cc1
  RP-LC retention time: 992 s

## O=C(c1ccccc1F)N1CCN(c2cc(-c3cccs3)[nH]n2)CC1
  RP-LC retention time: 771 s

## CCCOc1nc2ccccc2nc1N1CCCC(C(=O)Nc2ccccc2OC)C1 (stereo not given)
  RP-LC retention time: 1320 s

## COc1cc(NC(=O)Cn2ccc3sc(C)cc3c2=O)cc(OC)c1
  RP-LC retention time: 795 s

## Cc1ccc(NS(=O)(=O)c2cc(-c3[nH]ncc3C(=O)N3CCOCC3)oc2C)cc1
  RP-LC retention time: 695 s

## CC(C)C(=O)Nc1ccc(CCc2nc3ccc(C(=O)NC4CCCC4)cc3[nH]2)cc1
  RP-LC retention time: 650 s

## Clc1ccc(-c2nc(N3CCCC3)c3ccccc3n2)cc1
  RP-LC retention time: 726 s

## O=C(CSc1ncnc2c1oc1ccccc12)Nc1ccc(F)cc1F
  RP-LC retention time: 934 s

## O=C(NC1CCCCCC1)c1csc(-c2ccc(N3CCCC3)nc2)n1
  RP-LC retention time: 774 s

## Fc1ccc(-c2nnc(Cc3nc(-c4ccc(Cl)cc4)no3)o2)cc1
  RP-LC retention time: 1080 s

## Cc1ccc(F)c(-n2nnc(C(=O)O)c2C)c1
  RP-LC retention time: 689 s

## CS(=O)(=O)N1CCC(C(=O)Nc2ccc(F)cc2F)Oc2ccc(Cl)cc21 (stereo not given)
  RP-LC retention time: 944 s

## CC1CCc2nc3ncn(CC(=O)NC(C)c4ccccc4)c(=O)c3cc2C1 (stereo not given)
  RP-LC retention time: 762 s

## CCOc1ccccc1-c1csc(NC(=O)Cc2csc(C)n2)n1
  RP-LC retention time: 943 s

## CC1CN=C2C=C(N3CCN(C(=O)Nc4ccc(Cl)cc4F)CC3)N=CN21 (stereo not given)
  RP-LC retention time: 630 s

## COCCn1c(C)cc(O)c(C(c2ccc(OC)cc2)N2CCC(C)CC2)c1=O (stereo not given)
  RP-LC retention time: 845 s

## COc1cccc(CNC(=O)C2(C)CCCN(C(=O)NCCc3ccccc3)C2)c1 (stereo not given)
  RP-LC retention time: 855 s

## CC(C)CN1C(=O)c2cccn2CC1C(=O)NCCN1CCOCC1 (stereo not given)
  RP-LC retention time: 568 s

## COC(=O)c1ccccc1NC(=O)CSc1nc2ccccc2s1
  RP-LC retention time: 1030 s

## Clc1nc(Oc2ccccc2)nc(-c2cn(-c3ccccc3)c3ccccc23)n1
  RP-LC retention time: 732 s

## CCSc1ccc(-c2cccc(NC(=O)CC)c2)nn1
  RP-LC retention time: 787 s

## CCOc1ccc(-c2noc(C3CC(=O)N(c4ccc5c(c4)OCO5)C3)n2)cc1 (stereo not given)
  RP-LC retention time: 951 s

## Cc1cc(C)n(CCNC(=O)CSCc2ccccc2)n1
  RP-LC retention time: 683 s

## CCNC(=O)N1CCCC(c2cccc(C(=O)NCc3ccc(CC)cc3)c2)C1 (stereo not given)
  RP-LC retention time: 908 s

## CC(=O)N1CCC2(CC1)Oc1ccccc1C1CC(c3ccccc3)=NN12 (stereo not given)
  RP-LC retention time: 953 s

## O=C(CSc1nc2ccccc2o1)Nc1cc(C(F)(F)F)ccc1Cl
  RP-LC retention time: 891 s

## CCc1ccccc1NC(=O)C1CCc2sc(C(=O)N(C)C)cc2C1 (stereo not given)
  RP-LC retention time: 738 s

## Cc1cc(C(=O)N2CCCCC2)c2c(=O)n(CC(=O)Nc3cc(F)ccc3F)c(=O)n(C)c2n1
  RP-LC retention time: 837 s

## O=C(Nc1ccc2c(c1)OCCO2)C1CCCN(C(=O)c2cc(-c3ccccn3)n[nH]2)C1 (stereo not given)
  RP-LC retention time: 656 s

## CCOC(=O)C(=O)Nc1ccc(-c2nc(-c3ccc(C)cc3C)co2)cc1
  RP-LC retention time: 1170 s

## OC(COCC(c1ccccc1)c1ccccc1)Cn1cnc2ccccc21 (stereo not given)
  RP-LC retention time: 639 s

## O=C(NC1CCCCC1)c1ccc(CN2CCN(C3CCCC3)C(=O)C2=O)cc1
  RP-LC retention time: 831 s

## CCN1C(=O)c2cccnc2Sc2cc(CNC(=O)C3CCN(C(C)=O)CC3)ccc21
  RP-LC retention time: 638 s

## COc1ccccc1C(=O)N1CCN(C2=NS(=O)(=O)c3ccccc32)CC1
  RP-LC retention time: 698 s

## Cn1cc(S(=O)(=O)N2CCCCC2)cc1C(=O)N1CCc2ccccc2C1
  RP-LC retention time: 938 s

## O=C(Nc1cccc2c1N(C(=O)c1ccco1)CCC2)c1ccco1
  RP-LC retention time: 784 s

## Cc1ccccc1NS(=O)(=O)c1cn(C(C)C)c2ncccc12
  RP-LC retention time: 896 s

## CCOC(=O)C(C)NC(=O)N1CCN(Cc2nc3cccnc3n2-c2cc(C)cc(C)c2)CC1 (stereo not given)
  RP-LC retention time: 658 s

## CC(C)C1c2nccn2CCCN1C(=O)c1n[nH]c(=O)c2ccccc12 (stereo not given)
  RP-LC retention time: 569 s

## O=C(Nc1ccc(Cl)cc1F)N1CCC(n2c(-c3ccco3)nc3cccnc32)C1 (stereo not given)
  RP-LC retention time: 827 s

## CCOc1ccc(-c2csc3c(=O)n(Cc4ccc(F)cc4)cnc23)cc1OCC
  RP-LC retention time: 1100 s

## Cc1ccc(-c2ncccc2CNS(=O)(=O)c2ccc(Cl)cc2)cc1
  RP-LC retention time: 766 s

## O=C(Nc1cnc2ccccc2c1)c1cccc([N+](=O)[O-])c1
  RP-LC retention time: 717 s

## CC1CCC(C(=O)Nc2ccc3c(c2)n(C)c(=O)c(=O)n3C)CC1 (stereo not given)
  RP-LC retention time: 737 s

## CC(C)n1c(=O)c(NCc2ccc(F)cc2)nc2ccncc21
  RP-LC retention time: 669 s

## CC1CCCN(Cc2nc(Cn3ccn4nc(-c5ccc(F)cc5)cc4c3=O)no2)C1 (stereo not given)
  RP-LC retention time: 687 s

## COc1cccc(NC(=O)N2CCC3(C2)C(=O)N(C)c2ccc(OC)cc23)c1 (stereo not given)
  RP-LC retention time: 746 s

## NC(=O)C1CCN(Cc2nc(-c3ccc(N4CCOCC4)nc3)no2)CC1
  RP-LC retention time: 563 s

## COc1cc(C(=O)NCCc2csc(-c3ccc(Cl)cc3)n2)c([N+](=O)[O-])cc1OC
  RP-LC retention time: 895 s

## O=S(=O)(c1cccc2nsnc12)N1CCc2nc(-c3ccc(F)cc3)ncc2C1
  RP-LC retention time: 1040 s
